Assay results: patent US8324189B2, “Use of zolendronate for the manufacture of a medicament for the treatment of bone metabolism diseases” (Novartis Pharmaceuticals Corporation, priority 2001, dated 2012)

Key:
[1] = pharmacokinetic study of zoledronic acid in cancer patients with bone metastases (plasma concentration, urinary excretion); type: in vivo, human; conditions: for Cmax: human, plasma, intravenous
Method: FIG. 1. Plasma concentrations in patients after 4 mg zoledronic acid infused over 5 minutes and 15 minutes (mean data for n=5 patients in 4 mg/5 min group, n=7 patients in 4 mg/15 min group, study 503 [2]
• 1. The volume of 100 ml containing 4 mg zoledronic acid is infused over 15 minutes as an intravenous drip, which allows the drug to be administered at a uniform and precise rate. […] The pharmacokinetic parameters derived from the individual patients' plasma concentration versus time curves, and urinary excretion of drug are tabulated below.

[2] = controlled trials in cancer patients: percentage of patients showing a skeletal related adverse event; type: in vivo, human
Method: The 4 mg dose of zoledronic acid has been determined to be clinically effective in several controlled trials in cancer patients, with placebo or the bisphosphonate pamidronate as comparator.

[3] = renal adverse events (increase in serum creatinine over baseline) in clinical studies; type: in vivo, human; conditions: for incidence of renal adverse events / incidence of renal adverse events (patients with event / patients): 4 mg
Method: The dose of 4 mg zoledronic acid infused over 15 minutes offers a safety advantage in terms of renal tolerability over the shorter infusion time of 5 minutes. The lower incidence of renal adverse events with zoledronic acid infused over 15 minutes versus 5 minutes is summarized below. Renal adverse events are defined as increases in a patient's serum creatinine over baseline, by ≦0.5 mg/dL if baseline <1.4 mg/dL, by ≦1 mg/dL if baseline […], by ≦2-fold irrespective of baseline value.

[4] = as above; type: in vivo, human
[5] = tested on: prostate cancer cell lines; conditions: in vitro treatment; cited from earlier work
[6] = tested on: subcutaneous prostate cancer cell line tumours; conditions: cited from earlier work
[7] = tested on: osteoclastic bone resorption; conditions: animal models, cited from earlier work
[8] = 4 mg infused over 5 minutes, n = 5
[9] = 4 mg infused over 15 minutes, n = 7
[10] = Study 10, breast cancer patients
[11] = Study 10, multiple myeloma patients
[12] = Study 10, breast cancer and multiple myeloma patients, 5 minutes infusion
[13] = Study 10, breast cancer and multiple myeloma patients, 15 minutes infusion
[14] = Study 11, lung cancer patients, 5 minutes infusion
[15] = Study 11, lung cancer patients, 15 minutes infusion
[16] = Study 39, prostate cancer patients, 5 minutes infusion
[17] = Study 39, prostate cancer patients, 15 minutes infusion

In the case of `O=P(O)(O)C(O)(Cn1ccnc1)P(=O)(O)O` [zoledronic acid, 1-hydroxy-2-(imidazol-1-yl)ethane-1,1-diphosphonic acid], the “Differences in AUC, 15 minutes versus 5 minutes infusion” value ([1]; 4 mg) is reported as “not significant”, the “Differences in Ae, 15 minutes versus 5 minutes infusion” value ([1]; 4 mg) is reported as “not significant” and the “Differences in mean Cmax, 15 minutes versus 5 minutes infusion” value ([1]; 4 mg) is reported as “statistically significant”. For the same compound, the “AUC 0-24 h” value [1, 8] was 378 ± 116 ngxh/ml, the “Ae 0-24 h (amount of drug excreted in urine)” value [1, 8] was 38.7 ± 6.34 % of dose and the “AUC 0-24 h” value [1, 9] was 420 ± 218 ngxh/ml. The “Ae 0-24 h (amount of drug excreted in urine)” value [1, 9] was 37.4 ± 17.0 % of dose, the Cmax ([1]; 4 mg, 4 mg infused over 5 minutes, n = 5, cancer patients with bone metastases) was 403 ± 118 ng/mL and the Cmax ([1]; 4 mg, 4 mg infused over 15 minutes, n = 7, cancer patients with bone metastases) was 264 ± 86 ng/mL. The “efficacy versus Aredia (disodium pamidronate) 90 mg dosed over 2-4 hours” value ([2]; 4 mg infused over approximately 15 minutes) was “comparable efficacy”, the “Percentage of patients showing a skeletal related adverse event” value (shortened to “Percentage”) [2, 10] was 42% and the “Percentage” value [2, 11] was 47%. For the same compound, the “Percentage” value ([2]; Study 11, hypercalcemic lung cancer patients) was 42%, the “Percentage” value ([2]; Study 11, hypercalcemic patients with other solid tumors) was 33% and the “Percentage” value ([2]; Study 39, prostate cancer patients) was 33%. The “efficacy over placebo in the treatment of bone metastases” value ([2]; double blind, placebo-controlled clinical study, prostate cancer patients) was “statistically significant efficacy benefit over placebo”, the “renal safety versus 4 mg/5 minutes and higher zoledronic acid dose/15 minutes” value ([3]; 4 mg/15 minutes) was “improved renal safety” and the “incidence of renal adverse events” value [3, 12] was 13.2%. For the same compound, the “incidence of renal adverse events (patients with event / patients)” value (from here on “incidence … (patients with event / patients)”) [3, 12] was 36/272 patients, the “incidence of renal adverse events” value [3, 13] was 8.8% and the “incidence … (patients with event / patients)” value [3, 13] was 24/272 patients. The “incidence of renal adverse events” value ([3]; Study 10, breast cancer and multiple myeloma patients, 15 minutes infusion, listed as Zoledronic acid) was 8.8%, the “incidence of renal adverse events” value [3, 14] was 16.4% and the “incidence … (patients with event / patients)” value [3, 14] was 10/61 patients. For the same compound, the “incidence of renal adverse events” value [3, 15] was 10.9%, the “incidence … (patients with event / patients)” value [3, 15] was 18/165 patients and the “incidence of renal adverse events” value [3, 16] was 19.8%. For the same compound, the “incidence … (patients with event / patients)” value [3, 16] was 22/111 patients, the “incidence of renal adverse events” value [3, 17] was 15.2% and the “incidence … (patients with event / patients)” value [3, 17] was 14/78 patients. For the same compound, the “renal safety versus higher doses of zoledronic acid, 8 mg and 16 mg” value ([4]; 4 mg infused over 15 minutes) was “improved renal safety”, the “growth of prostate cancer cell lines” value [5] was “significantly reduced the growth of the cell lines” and the tumour volume [6] was “no significant decrease in tumour volume”. For the same compound, the “impact on renal function” value ([7]; doses inhibiting bone resorption) was “no appreciable impact on renal function” and the “inhibition of osteoclastic bone resorption versus earlier generation bisphosphonates” value ([7]; doses that do not affect bone formation and mineralization) was “inhibits osteoclastic bone resorption more effectively than earlier generation bisphosphonates”.

With `NCCC(O)(P(=O)(O)O)P(=O)(O)O` [pamidronate, disodium pamidronate] the “Percentage” value [2, 10] was 47%, the “Percentage” value [2, 11] was 49% and the “renal tolerability (incidence of renal adverse events)” value ([4]; 90 mg infused over 2 hours) was 8.2%.
